Here are results for 20 molecules from BindingDB's records for doi:10.1021/acs.jmedchem.6b00541 (Vertex Pharmaceuticals, 2016).

Experiment [1] can be described thus: Allosteric inhibition of HCV genotype 1b NS5A infected in human l389lucubi- neo/NS3-375.1-containing Huh7ET cells assessed as RNA replication/translation after 4 days in presence of 40% human serum by luciferase reporter gene assay. On the technique in general: In a reporter assay the amount or activity of a reporter protein is the signal.
A further experiment has as its target T1, Nonstructural protein 5A (UniProt Q5L478).
T1 sequence (Q5L478 whole entry): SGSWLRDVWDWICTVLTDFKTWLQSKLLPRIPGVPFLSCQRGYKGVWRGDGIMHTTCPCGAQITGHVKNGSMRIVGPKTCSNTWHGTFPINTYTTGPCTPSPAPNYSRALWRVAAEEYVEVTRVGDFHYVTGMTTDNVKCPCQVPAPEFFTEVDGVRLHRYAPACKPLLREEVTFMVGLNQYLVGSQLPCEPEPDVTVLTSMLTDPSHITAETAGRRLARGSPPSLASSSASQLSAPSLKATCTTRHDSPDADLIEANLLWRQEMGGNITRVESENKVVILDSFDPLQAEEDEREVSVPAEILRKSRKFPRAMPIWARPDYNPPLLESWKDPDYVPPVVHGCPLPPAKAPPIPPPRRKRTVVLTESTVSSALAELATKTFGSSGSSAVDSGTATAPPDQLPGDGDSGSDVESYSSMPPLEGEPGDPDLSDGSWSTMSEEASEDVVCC
Kind of experiment: Allosteric inhibition of HCV genotype 1b NS5A infected in human l389lucubi- neo/NS3-375.1-containing Huh7ET cells assessed as RNA replication/translation after 4 days by luciferase reporter gene assay.

Experiment [2] is described as follows: Allosteric inhibition of HCV genotype 1a NS5A infected in human W11.8 cells assessed as reduction in viral RNA replication after 4 days by ELISA. (In general: An ELISA detects its analyte on a solid surface through an enzyme-linked reagent.)
Experiment [3] can be described thus: Allosteric inhibition of HCV genotype 1b NS5A infected in human l389lucubi- neo/NS3-375.1-containing Huh7ET cells assessed as RNA replication/translation after 4 days by luciferase reporter gene assay.

As a reminder, the EC50 is the concentration giving half of the maximal effect. With `CC(C)(C)C#Cc1cc(N(CC(=O)N2CCOCC2)C(=O)[C@H]2CC[C@H](C)CC2)c(C(=O)O)s1`, the concentration for a half-maximal effect (EC50) in experiment [1] was determined as 340 nM; at Nonstructural protein 5A, 23 nM; in experiment [2], 37 nM.

As to `CC(C)(C)C#Cc1cc(N(CC(=O)N2CCCC2)C(=O)[C@H]2CC[C@H](C)CC2)c(C(=O)O)s1`, the EC50 in experiment [3] is 21 nM; in experiment [2], 32 nM.

`C[C@@H](C(=O)N(C)C)N(c1cc(C#CC(C)(C)C)sc1C(=O)O)C(=O)[C@H]1CC[C@H](C)CC1`: the EC50 in experiment [3] was 5 nM; in experiment [2], 7 nM.

For the molecule `CC[C@@H](C(=O)N(C)C)N(c1cc(C#CC(C)(C)C)sc1C(=O)O)C(=O)[C@H]1CC[C@H](C)CC1`, the values for the EC50 in experiment [3] and in experiment [2] were 16 nM and 24 nM, respectively.

`COC1CCN(C(=O)CN(c2cc(C#CC(C)(C)C)sc2C(=O)O)C(=O)[C@H]2CC[C@H](C)CC2)CC1`: in experiment [3], the concentration for a half-maximal effect (EC50) was 17 nM.

For `CC(C)(C)C#Cc1cc(N(CC(=O)N2CCC(O)CC2)C(=O)[C@H]2CC[C@H](C)CC2)c(C(=O)O)s1`, in experiment [3], the EC50 worked out at 64 nM.

For `CCN(CC)C(=O)CN(c1cc(C#CC(C)(C)C)sc1C(=O)O)C(=O)[C@H]1CC[C@H](C)CC1`, the EC50 in experiment [3] is 23 nM; in experiment [2] it was 51 nM.

`CN(C)C(=O)CN(c1cc(C#CC(C)(C)C)sc1C(=O)O)C(=O)[C@H]1CC[C@H](C)CC1`: the results for the concentration giving a half-maximal response (EC50) in experiment [3] and in experiment [2] were 12 nM and 35 nM, respectively.

In the case of `COC[C@@H](C(=O)N(C)C)N(c1cc(C#CC(C)(C)C)sc1C(=O)O)C(=O)[C@H]1CC[C@H](C)CC1`, the results for the EC50 in experiment [3] and in experiment [2] were 7 nM and 11 nM, respectively.

With `CCC[C@@H](C(=O)N(C)C)N(c1cc(C#CC(C)(C)C)sc1C(=O)O)C(=O)[C@H]1CC[C@H](C)CC1`, in experiment [3], the concentration for a half-maximal effect (EC50) was 14 nM.

As to `C[C@H](C(=O)N(C)C)N(c1cc(C#CC(C)(C)C)sc1C(=O)O)C(=O)[C@H]1CC[C@H](C)CC1`, in experiment [3], the EC50 is 109 nM.

In the case of `CC(C)(C)C#Cc1cc(N(CC(=O)N2CCCCC2)C(=O)[C@H]2CC[C@H](C)CC2)c(C(=O)O)s1`, the EC50 in experiment [3] was found to be 67 nM.

As to `CN(C)C(=O)[C@H](CO)N(c1cc(C#CC(C)(C)C)sc1C(=O)O)C(=O)[C@H]1CC[C@H](C)CC1`, the concentration giving a half-maximal response (EC50) in experiment [3] is 60 nM.

`CNC(=O)CN(c1cc(C#CC(C)(C)C)sc1C(=O)O)C(=O)[C@H]1CC[C@H](C)CC1`: in experiment [3], the EC50 was determined as 190 nM.

Consider `CN1CCN(C(=O)CN(c2cc(C#CC(C)(C)C)sc2C(=O)O)C(=O)[C@H]2CC[C@H](C)CC2)CC1`, for which the EC50 in experiment [3] came out at 6 nM.

`CC(C)(C)C#Cc1cc(N(CC(=O)N2CC(O)C2)C(=O)[C@H]2CC[C@H](C)CC2)c(C(=O)O)s1`: the EC50 in experiment [3] amounted to 66 nM.

With `CC(C)NC(=O)CN(c1cc(C#CC(C)(C)C)sc1C(=O)O)C(=O)[C@H]1CC[C@H](C)CC1`, in experiment [3], the EC50 turned out to be 160 nM.

For the molecule `CC(C)[C@@H](C(=O)N(C)C)N(c1cc(C#CC(C)(C)C)sc1C(=O)O)C(=O)[C@H]1CC[C@H](C)CC1`, the concentration giving a half-maximal response (EC50) in experiment [3] was found to be 51 nM.

For the molecule `CN(C)CCN(C)C(=O)CN(c1cc(C#CC(C)(C)C)sc1C(=O)O)C(=O)[C@H]1CC[C@H](C)CC1`, the EC50 in experiment [3] came out at 9 nM.

Turning to `CC(C)(C)C#Cc1cc(N(C(=O)[C@H]2CC[C@H](C)CC2)[C@H]2CC[C@H](O)CC2)c(C(=O)O)s1` [Lomibuvir], the EC50 in experiment [3] was 7 nM; in experiment [2], 53 nM.
